This note sets out measurements from ChEMBL document CHEMBL4311972, “Discovery of a benzothiophene-flavonol halting miltefosine and antimonial drug resistance in Leishmania parasites through the application of medicinal chemistry, screening and genomics” (Eur J Med Chem, 2019).

The structures appear in SMILES notation. Several values for one entry are separate records, joined by “and”; a condition that tells them apart may be missing. Equal values may be shown once. Activity calls are given as the source filed them. The calls are words filed in the database; no cut-off is given here.

The nature of data set [1]: Toxicity in Syrian hamster infected with Leishmania infantum BCN150 promastigotes assessed as dizziness at 20 mg/kg/day, po for 10 days measured daily. The format is organism-based, Mesocricetus auratus. Conditions: in vivo, 240 h.
The test system of data set [2] is Leishmania donovani. As to the kind of experiment: Antileishmanial activity against Leishmania donovani BPK091 promastigotes transfected with Leishmania donovani BPK190 genomic cosmid DNA assessed as parasite growth at IC75 concentration incubated for 3 days under selective pressure and selection cycle repeated for 25 passages and measured at 43 to 78 days of selection relative to control. Type of data set: functional.

Data set [3] can be described thus: Toxicity in Syrian hamster infected with Leishmania infantum BCN150 promastigotes assessed as nausea at 20 mg/kg/day, po for 10 days measured daily. The format is organism-based, Mesocricetus auratus. Conditions: in vivo, 240 h.
Data set [4] can be described thus: Toxicity in Syrian hamster infected with Leishmania infantum BCN150 promastigotes assessed as itching effect at 20 mg/kg/day, po for 10 days measured daily. Type of data set: organism-based, Mesocricetus auratus. The conditions noted are these: in vivo, 240 h.
Data set [5] in a line: Toxicity in Syrian hamster infected with Leishmania infantum BCN150 promastigotes assessed as effect on ALT level at 20 mg/kg/day, po for 10 days measured after the last treatment. The format is organism-based, Mesocricetus auratus. The conditions noted are these: in vivo, 240 h.
Data set [6] is described as follows: Toxicity in Syrian hamster infected with Leishmania infantum BCN150 promastigotes assessed as effect on ALT level at 40 mg/kg/day, po for 10 days formulated with 8% v/v DMSO measured after the last treatment. The format is organism-based, Mesocricetus auratus. Conditions: in vivo, 240 h.
Data set [7] can be described thus: Chemical stability of compound in PBS assessed as decrease in absorbance at 60 uM at pH 7 to 8 measured after exposure to daylight by UV-vis spectrophotometry analysis. The format is physicochemical. The conditions noted are these: buffer, pH 7, 60 µM.
Data set [8] concerns Leishmania infantum. The data set is described as follows: Antileishmanial activity against Leishmania infantum amastigotes infected in Syrian hamster assessed as parasite load within spleen at 40 mg/kg/day, po for 10 days formulated with 50% v/v cyclodextrin (reference value: 8508698.676 +/- 2835609.487/g). The format is functional.
Data set [9] is described as follows: Binding affinity to pepsin in porcine gastric mucosa in phosphate buffer assessed as compound lifetime at 530 nm at 5 uM measured at pH 8 by fluorescence emission spectrum analysis. Type of data set: ADME, Sus scrofa. The conditions noted are these: pig.
Data set [10] deals with Leishmania donovani. The data set is described as follows: Antileishmanial activity against antimony resistant Leishmania donovani BPK190 promastigotes infected in C57BL/6 mouse bone marrow-derived macrophages assessed as reduction in parasite load at 10 uM treated with compound at 24 hrs post-infection measured after 72 hrs post infection by q-PCR analysis relative to control. The format is functional.

Data set [11] has as its system Leishmania infantum. As to the kind of experiment: Anti-leishmanial activity against Leishmania infantum BCN150 promastigotes infected in Syrian hamster assessed as decrease in anti-leishmanial IgG level at 40 mg/kg/day, po for 10 days formulated with […] v/v DMSO by ELISA. Type of data set: functional, organism-based.
For data set [12], the target named is Albumin (Homo sapiens, UniProt P02768). The data set is described as follows: Binding affinity to human serum albumin in phosphate buffer assessed as increase in emission intensity at 530-550 nm at 5 uM measured at pH 8 at albumin concentration of 2 uM by fluorescence emission spectrum analysis. Conditions: isolated protein, pH 8, 5 µM. Type of data set: ADME.

For data set [13], the target named is T1, Albumin (Bos taurus, UniProt P02769). As to the kind of experiment: Binding affinity to bovine serum albumin by fluorescence based assay. Type of data set: ADME.
Data set [14] relates to Leishmania infantum. The data set is described as follows: Antileishmanial activity against Leishmania infantum amastigotes infected in Syrian hamster assessed as parasite load within spleen at 40 mg/kg/day, po for 10 days formulated with 30% v/v cyclodextrin (reference value: 9874032.937 +/- 3482270.184/g). The format is functional.
In data set [15] the target is T1, Albumin. As to the kind of experiment: Binding affinity to bovine serum albumin in phosphate buffer assessed as increase in emission anisotropy at 530 nm at 5 uM measured at pH 8 by fluorescence emission spectrum analysis. The format is ADME. Conditions: cattle, isolated protein.
The nature of data set [16]: Stability of the compound in phosphate buffer assessed as compound lifetime at 450 nm at 5 uM measured at pH 8 by fluorescence emission spectrum analysis. Type of data set: physicochemical. Conditions: pH 8, 0.45 µM.
A short description of data set [17]: AUC (total) in BALB/c mouse at 1 mg/kg, iv measured upto 72 hrs by snapshot method. The format is ADME, organism-based. Further details: dose 1 mg/kg, time < 72 hr, route intravenous. Conditions: in vivo.
Data set [18] is described as follows: Toxicity in Syrian hamster infected with Leishmania infantum BCN150 promastigotes assessed as effect on ALT level at 40 mg/kg/day, po for 10 days formulated with 30 to 50% v/v cyclodextrin measured after the last treatment. The format is organism-based, Mesocricetus auratus. Conditions: in vivo, 240 h.
Data set [19] is described as follows: Toxicity in Syrian hamster infected with Leishmania infantum BCN150 promastigotes assessed as adverse effects at 20 mg/kg/every 12 hrs, po for 10 days formulated with 8% v/v DMSO measured daily. The format is organism-based, Mesocricetus auratus. Conditions: in vivo.
A short description of data set [20]: Chemical stability of compound in DMSO at 60 uM assessed as drug degradation measured at room temperature in dark after 1 day by UV-vis spectrophotometric analysis. Type of data set: physicochemical. The conditions noted are these: read-out: Drug degradation.
Data set [21] in a line: Binding affinity to pepsin in porcine gastric mucosa in phosphate buffer assessed as increase in emission intensity at 530 nm at 5 uM measured at pH 8 by fluorescence emission spectrum analysis. The format is ADME, Sus scrofa. The conditions noted are these: pig.
Data set [22] deals with Leishmania infantum. The data set is described as follows: Antileishmanial activity against Leishmania infantum amastigotes infected in Syrian hamster assessed as parasite load within liver at 40 mg/kg/day, po for 10 days formulated with 50% v/v cyclodextrin (reference value: 5000000.000 +/- 1673320.053/g). The format is functional.
The nature of data set [23]: Toxicity in Syrian hamster infected with Leishmania infantum BCN150 promastigotes assessed as liver lesions at 40 mg/kg/day, po for 10 days formulated with 8% v/v DMSO measured under necropsy. The conditions noted are these: in vivo, 240 h. The format is organism-based, Mesocricetus auratus.
Data set [24] in a line: Toxicity in Syrian hamster infected with Leishmania infantum BCN150 promastigotes assessed as liver weight at 40 mg/kg/day, po for 10 days formulated with 50% v/v cyclodextrin (reference value: 5.892 +/- 0.446 g). Conditions: in vivo, 240 h. Type of data set: organism-based, Mesocricetus auratus.
Data set [25] in a line: Toxicity in Syrian hamster infected with Leishmania infantum BCN150 promastigotes assessed as spleen lesions at 40 mg/kg/day, po for 10 days formulated with 8% v/v DMSO measured under necropsy. The format is organism-based, Mesocricetus auratus. The conditions noted are these: in vivo, 240 h.
Data set [26] in a line: Toxicity in Syrian hamster infected with Leishmania infantum BCN150 promastigotes assessed as liver weight at 40 mg/kg/day, po for 10 days formulated with 30% v/v cyclodextrin (reference value: 5.102 +/- 0.729 g). Conditions: in vivo, 240 h. Type of data set: organism-based, Mesocricetus auratus.
The test system of the next data set is WI-38. The data set is described as follows: Cytostatic activity against human WI38 cells assessed as reduction in cell growth incubated for 48 hrs by Celltiter-Glo luminescence assay. The format is cell-based. The conditions noted are these: wi-38, 48 h. (In general: Cellular ATP, detected with luciferase, serves as a proxy for viable cell number.)
The nature of data set [27]: Half-life in BALB/c mouse at 20 mg/kg, po measured upto 72 hrs by snapshot method. The conditions noted are these: in vivo. The format is ADME, organism-based.
Data set [28] concerns the target T1, Albumin. The data set is described as follows: Binding affinity to bovine serum albumin in phosphate buffer assessed as increase in emission intensity at 530-550 nm at 5 uM measured at pH 8 at albumin concentration of 12 uM by fluorescence emission spectrum analysis. Type of data set: ADME. Conditions: cattle, isolated protein, pH 8, 5 µM.
Data set [29] in a line: Toxicity in Syrian hamster infected with Leishmania infantum BCN150 promastigotes assessed as liver weight at 40 mg/kg/day, po for 10 days formulated with 8% v/v DMSO (reference value: 5.874 +/- 0.414 g). Type of data set: organism-based, Mesocricetus auratus. Conditions: in vivo, 240 h.
In data set [30] the test system is Leishmania donovani. The data set is described as follows: Antileishmanial activity against Leishmania donovani BPK091 promastigotes transfected with Leishmania donovani BPK190 genomic cosmid DNA assessed as decrease in parasite growth at IC75 concentration incubated for 3 days under selective pressure and selection cycle repeated for 25 passages and measured at 43 to 78 days of selection. Type of data set: functional, organism-based.

T1 sequence (P02769 whole entry): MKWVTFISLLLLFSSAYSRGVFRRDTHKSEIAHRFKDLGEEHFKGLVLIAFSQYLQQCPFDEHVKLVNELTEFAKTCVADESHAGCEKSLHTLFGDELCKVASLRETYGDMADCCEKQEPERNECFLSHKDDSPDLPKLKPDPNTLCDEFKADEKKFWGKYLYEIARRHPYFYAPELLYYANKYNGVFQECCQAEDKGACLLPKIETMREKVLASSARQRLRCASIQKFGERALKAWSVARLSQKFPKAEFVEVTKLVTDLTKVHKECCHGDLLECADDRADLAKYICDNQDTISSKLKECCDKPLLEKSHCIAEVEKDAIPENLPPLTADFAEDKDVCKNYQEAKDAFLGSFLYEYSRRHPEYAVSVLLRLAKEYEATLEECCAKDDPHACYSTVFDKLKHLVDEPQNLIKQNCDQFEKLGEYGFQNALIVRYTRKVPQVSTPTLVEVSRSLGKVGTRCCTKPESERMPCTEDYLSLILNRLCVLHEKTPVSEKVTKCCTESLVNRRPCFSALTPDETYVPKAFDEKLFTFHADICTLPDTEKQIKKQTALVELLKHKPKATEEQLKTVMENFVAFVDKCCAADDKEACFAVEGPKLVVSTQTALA
Albumin (Homo sapiens, UniProt P02768), sequence (P02768 whole entry): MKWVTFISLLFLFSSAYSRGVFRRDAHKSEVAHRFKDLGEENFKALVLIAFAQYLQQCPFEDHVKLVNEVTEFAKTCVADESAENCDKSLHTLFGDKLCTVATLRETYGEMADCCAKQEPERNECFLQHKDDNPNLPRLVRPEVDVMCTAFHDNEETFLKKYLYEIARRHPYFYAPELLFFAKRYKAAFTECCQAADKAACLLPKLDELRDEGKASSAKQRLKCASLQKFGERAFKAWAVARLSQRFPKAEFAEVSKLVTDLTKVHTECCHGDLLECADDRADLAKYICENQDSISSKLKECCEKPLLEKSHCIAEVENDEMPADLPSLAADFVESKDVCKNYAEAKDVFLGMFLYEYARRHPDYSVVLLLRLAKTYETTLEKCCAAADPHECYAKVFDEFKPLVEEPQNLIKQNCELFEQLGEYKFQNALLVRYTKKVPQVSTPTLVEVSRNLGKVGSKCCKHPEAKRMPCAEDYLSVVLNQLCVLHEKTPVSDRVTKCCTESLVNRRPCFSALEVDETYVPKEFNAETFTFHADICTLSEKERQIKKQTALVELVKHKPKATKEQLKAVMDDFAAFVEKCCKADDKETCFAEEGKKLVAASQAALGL

Turning to `CCCCCCCCCCCCCCCCOP(=O)([O-])OCC[N+](C)(C)C` [MILTEFOSINE], the Activity result in [1] is listed as “Toxic”; in the data set on Leishmania donovani [2] it was over 75%; in data set [3], “Toxic”; in data set [4], “Toxic”; in [5], “Non-Toxic”.

As for `COc1ccc2oc(-c3csc4ccccc34)c(O)c(=O)c2c1`, the Activity entry in [6] was “Non-Toxic”; in the data set with Leishmania infantum [8], 5465832.19 g⁻¹; at Albumin [12] it was 50%; with Leishmania infantum [14] it was 7030915.598 g⁻¹; on Albumin [15], “Active”; in [18], “Non-Toxic”. Moreover, the Activity result is “Non-Toxic” in [19]; “Active” in data set [21]; 4000000 g⁻¹ in the data set on Leishmania infantum [22]; “Non-Toxic” in [23]; 5.522 g in [24]; “Non-Toxic” in data set [25]. Further, the Activity in data set [26] is listed as 5.448 g; in the data set with WI-38, “Toxic”; on Albumin [28], 50%; in [29], 5.444 g. In [7], the Stability result is given as “Unstable”. Besides, the Time in data set [9] is 5.5 nanoseconds; in data set [16], 0.32 nanoseconds. The inhibition (usually the share of the control response that was lost under treatment) at 10 µM in the data set on Leishmania donovani [10] came to 69%. Also, the inhibition entry in the data set with Leishmania infantum [11] and with Leishmania donovani [30] was “Active” each time. In addition, the Kd (usually a measure of binding affinity in units of concentration) on Albumin [13] was over 12 µM. The AUC (in general, the area under the concentration-time curve, a measure of exposure) at 72 h in data set [17] is 16.3 µM·h and 5280 ng·h/mL. Further, the degraded at 24 h, 60 µM in [20] was determined as 1%. The half-life (commonly the time in which the quantity being followed falls by half) in data set [27] was 46.9 h.
